In patent publication US12552737B2, “Salts of (2R, 6R)-hydroxynorketamine, their crystal forms, and methods of making the same” (THE UNITED STATES OF AMERICA, AS REPRESENTED BY THE …, priority 2019, dated 2026):

Tests used:
[1] = Dynamic vapor sorption (DVS) sorption-desorption; assay type: physicochemical; conditions: for hygroscopicity: DVS, water, 25° C., 0% RH to 95% RH
Experimental: Dynamic Vapor Sorption (DVS)
Typically, 20-50 mg of the test substances were mounted in a gauze basket and transferred to the sample port. Excess static electricity was removed throughout sample handling and sample mounting using a 210Po static eliminator. Instrument performance checks were completed using traceable samples of sodium chloride and lithium chloride.

[2] = based on X-ray powder diffraction data
Experimental: X-Ray Powder Diffraction (XRPD)
X-ray powder diffractograms were acquired using a Bruker D5000 diffractometer in Bragg-Brentano configuration. Extended acquisition parameters were employed for each batch of the drug substance, as detailed below. • Acquisition parameters: • Source: CuKα • Wavelength: 1.5406 Å • Scan range: 2-40° (2θ) • Step size: 0.01° (2θ) • Time per step: 4.0 s • Divergence slit width: 2 mm • Antiscatter slit width: 2 mm • Detector slit width: 0.2 mm • Sample rotation: Engaged • Tube accelerating potential: 40 kV • Tube accelerating current: 30 mA • Temperature: Ambient (nominally 18-22° C.)
Approximately 2 mg of each sample was mounted on a silicon base for the analyses.
All the data were smoothed by use of Fourier algorithms and the background was subtracted from each diffractogram. Instrument performance checks were completed prior to measurements using a NIST traceable standard of corundum and also using a standard of Arkansas stone quartz.
Dynamic vapor sorption-desorption experiments were carried out using a DVS Resolution instrument supplied by Surface Measurement Systems. […]

| SMILES | hygroscopicity [1] | hygroscopicity ([1]; listed as (2R,6R)-hydroxynorketamine malonate) | hygroscopicity ([1]; listed as (2R,6R)-hydroxynorketamine salicylate) | water acquired in DVS isotherm ([1]; over the entire range of relative humidities (0% RH to 95% RH)) | change of physical form on exposure to elevated relative humidities [2] |
| --- | --- | --- | --- | --- | --- |
| NC1(c2ccccc2Cl)CCCC(O)C1=O.O=C(O)CC(=O)O (stereo not drawn) [RR-HNK malonate, 2R,6R-hydroxynorketamine (RR-HNK) Malonate] | non-hygroscopic | very low hygroscopicity | – | – | – |
| N[C@@]1(c2ccccc2Cl)CCC[C@@H](O)C1=O.O=C(O)c1ccccc1O [RR-HNK salicylate, 2R,6R-hydroxynorketamine (RR-HNK) Salicylate] | non-hygroscopic | – | very low hygroscopicity | acquires very little water | does not change the physical form |
